Experimental data from the kinase profiling compilation of Christmann-Franck et al. (2016).
Blank lines part the entries; values can stand above or below the molecule they belong to.

Experiments:
Assay in all cases: radiometric filter-binding kinase assay, Kinase HotSpot
Details in all cases: compound 0.5 µM; ATP 10 µM
[1] = molecular target: NEK11 (human) (UniProt Q8NG66)
[2] = molecular target: TEK (human) (UniProt Q02763)
[3] = molecular target: PRKCI (human) (UniProt P41743)
[4] = molecular target: JAK2 JH1 JH2 (human) (UniProt O60674)
[5] = molecular target: EPHA8 (human) (UniProt P29322)
[6] = molecular target: DSTYK (human) (UniProt Q6XUX3)
DSTYK (human), sequence (Q6XUX3 whole entry, looked up): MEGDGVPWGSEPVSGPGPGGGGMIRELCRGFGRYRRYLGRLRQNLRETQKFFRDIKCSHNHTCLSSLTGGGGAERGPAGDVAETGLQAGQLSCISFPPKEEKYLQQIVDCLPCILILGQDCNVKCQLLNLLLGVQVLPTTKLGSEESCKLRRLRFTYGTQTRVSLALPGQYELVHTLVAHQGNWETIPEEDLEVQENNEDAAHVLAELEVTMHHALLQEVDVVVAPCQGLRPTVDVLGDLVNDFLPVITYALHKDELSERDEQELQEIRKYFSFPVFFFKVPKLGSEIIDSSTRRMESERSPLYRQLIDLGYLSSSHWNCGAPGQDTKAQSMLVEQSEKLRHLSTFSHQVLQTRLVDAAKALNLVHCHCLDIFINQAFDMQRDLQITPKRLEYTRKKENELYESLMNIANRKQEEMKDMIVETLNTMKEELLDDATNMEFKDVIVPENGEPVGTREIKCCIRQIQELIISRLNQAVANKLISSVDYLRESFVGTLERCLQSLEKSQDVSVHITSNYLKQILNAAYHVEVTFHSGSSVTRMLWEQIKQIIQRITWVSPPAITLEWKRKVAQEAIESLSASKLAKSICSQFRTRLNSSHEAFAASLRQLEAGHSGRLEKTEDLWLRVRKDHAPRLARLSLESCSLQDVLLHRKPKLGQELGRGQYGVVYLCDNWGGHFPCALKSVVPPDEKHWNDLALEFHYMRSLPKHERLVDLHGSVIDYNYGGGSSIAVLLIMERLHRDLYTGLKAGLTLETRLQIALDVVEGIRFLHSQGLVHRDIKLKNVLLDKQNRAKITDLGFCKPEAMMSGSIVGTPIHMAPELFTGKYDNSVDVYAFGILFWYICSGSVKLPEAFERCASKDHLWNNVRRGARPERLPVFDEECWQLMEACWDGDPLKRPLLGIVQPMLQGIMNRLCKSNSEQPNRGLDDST

[7] = molecular target: GSK3A (human) (UniProt P49840)
[8] = molecular target: FGFR3 (human) (UniProt P22607)
[9] = molecular target: AKT1 (human) (UniProt P31749)
[10] = molecular target: CDK5 CDK5R1 p25 (human) (UniProt Q00535+Q15078)
[11] = molecular target: CDK6 CCND3 (human) (UniProt P30281+Q00534)
[12] = molecular target: ABL2 (human) (UniProt P42684)
ABL2 (human), sequence (P42684 whole entry, looked up): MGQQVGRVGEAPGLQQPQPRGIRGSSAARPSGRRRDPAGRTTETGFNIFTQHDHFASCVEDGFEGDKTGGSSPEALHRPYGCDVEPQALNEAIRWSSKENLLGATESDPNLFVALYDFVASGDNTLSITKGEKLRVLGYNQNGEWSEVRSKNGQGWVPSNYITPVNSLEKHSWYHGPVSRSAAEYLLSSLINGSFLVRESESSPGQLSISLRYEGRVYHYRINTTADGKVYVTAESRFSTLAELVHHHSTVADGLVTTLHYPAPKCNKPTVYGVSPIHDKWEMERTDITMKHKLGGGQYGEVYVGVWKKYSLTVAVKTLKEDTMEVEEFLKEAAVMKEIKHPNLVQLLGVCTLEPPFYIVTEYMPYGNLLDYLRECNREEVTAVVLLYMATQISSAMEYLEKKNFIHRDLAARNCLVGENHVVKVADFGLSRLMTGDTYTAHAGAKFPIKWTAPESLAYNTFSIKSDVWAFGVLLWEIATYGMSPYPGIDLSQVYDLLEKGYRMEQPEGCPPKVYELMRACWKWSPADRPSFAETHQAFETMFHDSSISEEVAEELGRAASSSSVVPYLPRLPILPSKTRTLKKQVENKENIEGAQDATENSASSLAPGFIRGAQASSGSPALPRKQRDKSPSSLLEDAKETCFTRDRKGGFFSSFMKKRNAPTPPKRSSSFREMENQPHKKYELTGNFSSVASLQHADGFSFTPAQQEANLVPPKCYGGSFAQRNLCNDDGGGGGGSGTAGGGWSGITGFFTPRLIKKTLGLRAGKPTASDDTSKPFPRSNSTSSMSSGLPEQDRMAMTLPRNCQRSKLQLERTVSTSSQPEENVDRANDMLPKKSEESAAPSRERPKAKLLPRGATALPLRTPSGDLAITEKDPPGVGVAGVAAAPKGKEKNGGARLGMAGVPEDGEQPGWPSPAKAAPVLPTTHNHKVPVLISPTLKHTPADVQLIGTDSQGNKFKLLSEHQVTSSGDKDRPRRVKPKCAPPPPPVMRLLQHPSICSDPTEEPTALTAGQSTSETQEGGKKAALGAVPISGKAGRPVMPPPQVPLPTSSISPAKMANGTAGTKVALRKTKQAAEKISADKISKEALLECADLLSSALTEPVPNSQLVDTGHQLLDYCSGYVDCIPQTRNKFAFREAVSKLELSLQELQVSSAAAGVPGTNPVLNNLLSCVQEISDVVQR

[13] = molecular target: DYRK1B (human) (UniProt Q9Y463)
[14] = molecular target: TXK (human) (UniProt P42681)
[15] = molecular target: ALK (human) (UniProt Q9UM73)
ALK (human), sequence (Q9UM73 whole entry, looked up): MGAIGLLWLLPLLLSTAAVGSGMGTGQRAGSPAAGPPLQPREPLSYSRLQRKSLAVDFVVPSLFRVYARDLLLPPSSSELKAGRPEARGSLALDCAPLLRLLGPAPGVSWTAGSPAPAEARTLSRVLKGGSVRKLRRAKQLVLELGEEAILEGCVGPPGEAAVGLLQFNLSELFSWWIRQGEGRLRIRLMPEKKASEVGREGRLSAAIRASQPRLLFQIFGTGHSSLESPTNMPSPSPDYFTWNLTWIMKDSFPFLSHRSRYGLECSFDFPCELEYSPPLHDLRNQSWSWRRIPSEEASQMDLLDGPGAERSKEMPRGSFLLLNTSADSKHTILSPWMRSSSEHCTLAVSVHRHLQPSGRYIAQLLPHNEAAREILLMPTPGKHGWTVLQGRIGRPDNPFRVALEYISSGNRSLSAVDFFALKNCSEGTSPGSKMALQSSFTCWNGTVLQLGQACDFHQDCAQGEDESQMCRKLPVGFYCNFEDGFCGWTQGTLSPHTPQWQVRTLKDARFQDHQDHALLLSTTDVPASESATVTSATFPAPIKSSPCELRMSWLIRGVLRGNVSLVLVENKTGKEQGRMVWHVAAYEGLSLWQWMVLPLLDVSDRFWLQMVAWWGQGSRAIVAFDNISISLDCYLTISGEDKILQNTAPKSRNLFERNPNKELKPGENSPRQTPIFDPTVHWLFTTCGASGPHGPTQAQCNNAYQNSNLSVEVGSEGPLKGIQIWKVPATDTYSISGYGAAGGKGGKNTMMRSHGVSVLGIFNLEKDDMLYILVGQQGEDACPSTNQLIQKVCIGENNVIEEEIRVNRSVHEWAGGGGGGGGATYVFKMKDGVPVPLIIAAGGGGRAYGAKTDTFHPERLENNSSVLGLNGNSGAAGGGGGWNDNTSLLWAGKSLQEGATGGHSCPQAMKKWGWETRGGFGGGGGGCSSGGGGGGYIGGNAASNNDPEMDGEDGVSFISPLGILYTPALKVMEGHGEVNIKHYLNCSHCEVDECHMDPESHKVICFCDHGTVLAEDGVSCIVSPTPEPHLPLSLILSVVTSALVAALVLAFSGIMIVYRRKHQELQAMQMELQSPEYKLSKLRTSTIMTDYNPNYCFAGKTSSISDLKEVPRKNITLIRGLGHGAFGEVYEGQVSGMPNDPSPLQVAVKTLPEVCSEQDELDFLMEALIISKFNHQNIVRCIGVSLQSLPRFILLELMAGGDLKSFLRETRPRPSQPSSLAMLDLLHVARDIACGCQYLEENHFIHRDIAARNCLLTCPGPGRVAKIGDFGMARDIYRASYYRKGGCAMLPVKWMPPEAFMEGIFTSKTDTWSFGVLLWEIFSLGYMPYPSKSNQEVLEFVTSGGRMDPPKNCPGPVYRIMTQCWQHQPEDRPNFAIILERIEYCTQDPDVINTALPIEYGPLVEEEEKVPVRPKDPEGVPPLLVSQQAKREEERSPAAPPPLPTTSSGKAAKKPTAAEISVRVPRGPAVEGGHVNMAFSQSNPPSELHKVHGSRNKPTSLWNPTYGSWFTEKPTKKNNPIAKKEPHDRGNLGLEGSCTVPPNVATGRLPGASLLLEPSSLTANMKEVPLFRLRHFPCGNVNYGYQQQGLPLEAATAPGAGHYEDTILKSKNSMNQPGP

[16] = molecular target: CDC42BPB (human) (UniProt Q9Y5S2)
[17] = molecular target: FLT1 (human) (UniProt P17948)
[18] = molecular target: RPS6KB2 (human) (UniProt Q9UBS0)
[19] = molecular target: STK17A (human) (UniProt Q9UEE5)
[20] = molecular target: BTK (human) (UniProt Q06187)
[21] = molecular target: PBK (human) (UniProt Q96KB5)
[22] = molecular target: GRK5 (human) (UniProt P34947)
[23] = molecular target: SRPK1 (human) (UniProt Q96SB4)
[24] = molecular target: MAPKAPK2 (human) (UniProt P49137)
[25] = molecular target: TYK2 JH1 catalytic (human) (UniProt P29597)
[26] = molecular target: FGFR2 (human) (UniProt P21802)
[27] = molecular target: EPHB2 (human) (UniProt P29323)
[28] = molecular target: CAMK2A (human) (UniProt Q9UQM7)
[29] = molecular target: RPS6KA5 KD2 (human) (UniProt O75582)
RPS6KA5 KD2 (human), sequence (O75582 whole entry, looked up): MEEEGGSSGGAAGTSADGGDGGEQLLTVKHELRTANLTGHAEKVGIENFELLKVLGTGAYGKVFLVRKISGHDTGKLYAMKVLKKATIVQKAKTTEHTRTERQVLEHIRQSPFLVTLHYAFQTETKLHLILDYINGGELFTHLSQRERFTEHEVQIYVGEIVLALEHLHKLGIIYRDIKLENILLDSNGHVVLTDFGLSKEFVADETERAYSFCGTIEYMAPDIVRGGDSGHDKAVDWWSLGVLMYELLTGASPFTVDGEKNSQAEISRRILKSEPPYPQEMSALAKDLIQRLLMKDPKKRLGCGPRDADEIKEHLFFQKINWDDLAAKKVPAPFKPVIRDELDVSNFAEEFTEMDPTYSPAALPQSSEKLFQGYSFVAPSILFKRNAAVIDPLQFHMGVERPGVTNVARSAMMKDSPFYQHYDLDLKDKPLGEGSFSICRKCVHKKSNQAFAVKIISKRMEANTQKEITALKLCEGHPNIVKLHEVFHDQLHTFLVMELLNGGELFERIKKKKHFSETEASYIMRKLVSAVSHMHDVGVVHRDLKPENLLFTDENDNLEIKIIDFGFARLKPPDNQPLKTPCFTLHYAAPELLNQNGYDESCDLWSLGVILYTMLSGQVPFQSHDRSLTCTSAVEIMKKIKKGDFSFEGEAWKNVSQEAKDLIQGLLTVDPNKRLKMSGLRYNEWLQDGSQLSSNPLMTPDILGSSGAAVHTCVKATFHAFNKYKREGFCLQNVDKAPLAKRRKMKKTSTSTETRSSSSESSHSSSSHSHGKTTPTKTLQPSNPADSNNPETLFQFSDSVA

[30] = molecular target: NEK9 (human) (UniProt Q8TD19)
[31] = molecular target: NEK4 (human) (UniProt P51957)
[32] = molecular target: MAPK11 (human) (UniProt Q15759)
[33] = molecular target: MAP2K2 (human) (UniProt P36507)
[34] = molecular target: CDK1 CCNB1 (human) (UniProt P06493+P14635)
[35] = molecular target: NTRK3 (human) (UniProt Q16288)
[36] = molecular target: KDR (human) (UniProt P35968)
[37] = molecular target: SLK (human) (UniProt Q9H2G2)
[38] = molecular target: IRAK4 (human) (UniProt Q9NWZ3)
[39] = molecular target: AURKA (human) (UniProt O14965)
[40] = molecular target: PAK2 (human) (UniProt Q13177)
[41] = molecular target: PRKG2 (human) (UniProt Q13237)
[42] = molecular target: PNCK (human) (UniProt Q6P2M8)

PRKCI (human), sequence (P41743 whole entry, looked up): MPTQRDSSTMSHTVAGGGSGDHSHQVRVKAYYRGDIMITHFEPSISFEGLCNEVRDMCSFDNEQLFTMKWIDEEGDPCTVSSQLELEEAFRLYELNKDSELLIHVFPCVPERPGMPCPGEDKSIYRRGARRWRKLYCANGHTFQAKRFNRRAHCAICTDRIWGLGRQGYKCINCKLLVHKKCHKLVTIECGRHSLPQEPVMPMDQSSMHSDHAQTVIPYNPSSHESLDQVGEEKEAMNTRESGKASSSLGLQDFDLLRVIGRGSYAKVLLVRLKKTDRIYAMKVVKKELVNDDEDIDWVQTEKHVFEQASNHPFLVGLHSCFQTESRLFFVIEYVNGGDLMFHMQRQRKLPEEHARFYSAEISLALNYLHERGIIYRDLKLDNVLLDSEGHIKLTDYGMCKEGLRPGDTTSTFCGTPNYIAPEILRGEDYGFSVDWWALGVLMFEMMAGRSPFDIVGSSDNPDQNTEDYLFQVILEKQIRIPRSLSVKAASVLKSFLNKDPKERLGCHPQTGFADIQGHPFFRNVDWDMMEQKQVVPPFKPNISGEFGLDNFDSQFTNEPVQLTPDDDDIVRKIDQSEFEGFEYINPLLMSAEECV

residual activity [1]: 92.3% | residual activity [2]: 101% | residual activity [3]: 100% | residual activity [4]: 43.1% | residual activity [5]: 91.9% | residual activity [6]: 104% | residual activity [7]: 7.31% | residual activity [8]: 45.8% | residual activity [9]: 95.6% | residual activity [10]: 16.4% | residual activity [11]: 10.2% | residual activity [12]: 38.5% | residual activity [13]: 65.1% | residual activity [14]: 25.6% | residual activity [15]: 38.1% | residual activity [16]: 96.6% | residual activity [17]: 51% | residual activity [18]: 106% | residual activity [19]: 22.5% | residual activity [20]: 24.1% | residual activity [21]: 80.6% | residual activity [22]: 84.6% | residual activity [23]: 71.3% | residual activity [24]: 98.4% | residual activity [25]: 9.42% | residual activity [26]: 76% | residual activity [27]: 75% | residual activity [28]: 12.2% | residual activity [29]: 37.5% | residual activity [31]: 83.9% | residual activity [32]: 95.2% | residual activity [33]: 86.5% | residual activity [34]: 33.4% | residual activity [35]: 1.01% | residual activity [36]: 56.4% | residual activity [37]: 59.9% | residual activity [38]: 60.3% | residual activity [39]: 9.78% | residual activity [40]: 82.1% | residual activity [41]: 28.1% | residual activity [42]: 101%
Structure (SMILES): O=C1Nc2ccccc2/C1=C1/Nc2ccccc2/C1=N\OCCC(O)CO (stereo not drawn)
residual activity [30]: 73.6%

Structure (SMILES): O=C1NC(=O)C(c2c[nH]c3ccccc23)=C1c1c[nH]c2ccccc12
residual activity [1]: 108% | residual activity [2]: 101% | residual activity [3]: 96.9% | residual activity [4]: 100% | residual activity [5]: 103% | residual activity [6]: 99.6% | residual activity [7]: 27.7% | residual activity [8]: 70.7% | residual activity [9]: 87.7% | residual activity [10]: 87.4% | residual activity [11]: 103% | residual activity [12]: 82.3% | residual activity [13]: 86.8% | residual activity [14]: 101% | residual activity [15]: 95.7% | residual activity [16]: 99% | residual activity [17]: 53.9% | residual activity [18]: 94.6% | residual activity [19]: 92.2% | residual activity [20]: 98.2% | residual activity [21]: 100% | residual activity [22]: 98.1% | residual activity [23]: 89.4% | residual activity [24]: 95.6% | residual activity [25]: 109% | residual activity [26]: 89.4% | residual activity [27]: 96.9% | residual activity [28]: 85.3% | residual activity [29]: 62% | residual activity [30]: 97.3% | residual activity [31]: 96.4% | residual activity [32]: 89% | residual activity [33]: 82.7% | residual activity [34]: 96.5% | residual activity [35]: 72.5% | residual activity [36]: 60.8% | residual activity [37]: 45.4% | residual activity [38]: 92% | residual activity [39]: 108% | residual activity [40]: 97% | residual activity [41]: 52.6% | residual activity [42]: 93.3%

Structure (SMILES): Oc1ccc(Nc2nc(-c3ccc(Cl)cc3)cs2)cc1
residual activity [1]: 77.1% | residual activity [2]: 104% | residual activity [3]: 99.5% | residual activity [4]: 101% | residual activity [5]: 93.4% | residual activity [6]: 104% | residual activity [7]: 97.4% | residual activity [8]: 96.5% | residual activity [9]: 106% | residual activity [10]: 85.9% | residual activity [11]: 109% | residual activity [12]: 93.4% | residual activity [13]: 106% | residual activity [14]: 100% | residual activity [15]: 111% | residual activity [16]: 108% | residual activity [17]: 82.3% | residual activity [18]: 99.8% | residual activity [19]: 98.7% | residual activity [20]: 107% | residual activity [21]: 100% | residual activity [22]: 92% | residual activity [23]: 103% | residual activity [24]: 100% | residual activity [25]: 110% | residual activity [26]: 104% | residual activity [27]: 101% | residual activity [28]: 106% | residual activity [29]: 109% | residual activity [30]: 90.6% | residual activity [31]: 104% | residual activity [32]: 105% | residual activity [33]: 109% | residual activity [34]: 109% | residual activity [35]: 102% | residual activity [36]: 101% | residual activity [37]: 110% | residual activity [38]: 111% | residual activity [39]: 89.4% | residual activity [40]: 87% | residual activity [41]: 92.9% | residual activity [42]: 100%

residual activity [1]: 110% | residual activity [2]: 106% | residual activity [3]: 74.3% | residual activity [4]: 105% | residual activity [5]: 96.3% | residual activity [6]: 81.1% | residual activity [7]: 6.49% | residual activity [8]: 46.5% | residual activity [9]: 99.6% | residual activity [10]: 51.4% | residual activity [11]: 40.9% | residual activity [12]: 26.4% | residual activity [13]: 96% | residual activity [14]: 46.4% | residual activity [15]: 86.7% | residual activity [16]: 94.7% | residual activity [17]: 98.6% | residual activity [18]: 83.7% | residual activity [19]: 72.7% | residual activity [20]: 27.3% | residual activity [21]: 76.8% | residual activity [22]: 104% | residual activity [23]: 96.7% | residual activity [24]: 109% | residual activity [25]: 81.6% | residual activity [26]: 85.8% | residual activity [27]: 81.4% | residual activity [28]: 89.2% | residual activity [29]: 83.9% | residual activity [31]: 85.6% | residual activity [32]: 83.4% | residual activity [33]: 83.1% | residual activity [34]: 79.3% | residual activity [35]: 15.1% | residual activity [36]: 74.2% | residual activity [37]: 80.2% | residual activity [38]: 94.1% | residual activity [39]: 55.4% | residual activity [40]: 103% | residual activity [41]: 91.4% | residual activity [42]: 96.3%
Structure (SMILES): CC(=O)O/N=C1\C(=C2\C(=O)Nc3cc(Br)ccc32)Nc2ccccc21
residual activity [30]: 86.7%
